Laboratory results published in patent US20120028995A1, “NOVEL COMPOUNDS FOR MEDICAL USE AS PEPTIDASE EFFECTORS” (IMTM GMBH, priority 2010, published 2012).

Tests used:
[1] = biological target: T1, cytosolic aminopeptidase (cAAP) purified from Jurkat cells (Homo sapiens, UniProt P55786); assay: Inhibition of enzymatic activity of cytosolic aminopeptidase (cAAP); format: biochemical; details: highest test item concentration 25 μM; for IC50: read-out: meas. IC50 (cAAP)
T1 construct: The cytosolic aminopeptidase (cAAP) was purified from Jurkat cells; endogenous in cells; host or cells: Jurkat cells (enzyme purified from them)
T1 sequence (P55786 whole entry): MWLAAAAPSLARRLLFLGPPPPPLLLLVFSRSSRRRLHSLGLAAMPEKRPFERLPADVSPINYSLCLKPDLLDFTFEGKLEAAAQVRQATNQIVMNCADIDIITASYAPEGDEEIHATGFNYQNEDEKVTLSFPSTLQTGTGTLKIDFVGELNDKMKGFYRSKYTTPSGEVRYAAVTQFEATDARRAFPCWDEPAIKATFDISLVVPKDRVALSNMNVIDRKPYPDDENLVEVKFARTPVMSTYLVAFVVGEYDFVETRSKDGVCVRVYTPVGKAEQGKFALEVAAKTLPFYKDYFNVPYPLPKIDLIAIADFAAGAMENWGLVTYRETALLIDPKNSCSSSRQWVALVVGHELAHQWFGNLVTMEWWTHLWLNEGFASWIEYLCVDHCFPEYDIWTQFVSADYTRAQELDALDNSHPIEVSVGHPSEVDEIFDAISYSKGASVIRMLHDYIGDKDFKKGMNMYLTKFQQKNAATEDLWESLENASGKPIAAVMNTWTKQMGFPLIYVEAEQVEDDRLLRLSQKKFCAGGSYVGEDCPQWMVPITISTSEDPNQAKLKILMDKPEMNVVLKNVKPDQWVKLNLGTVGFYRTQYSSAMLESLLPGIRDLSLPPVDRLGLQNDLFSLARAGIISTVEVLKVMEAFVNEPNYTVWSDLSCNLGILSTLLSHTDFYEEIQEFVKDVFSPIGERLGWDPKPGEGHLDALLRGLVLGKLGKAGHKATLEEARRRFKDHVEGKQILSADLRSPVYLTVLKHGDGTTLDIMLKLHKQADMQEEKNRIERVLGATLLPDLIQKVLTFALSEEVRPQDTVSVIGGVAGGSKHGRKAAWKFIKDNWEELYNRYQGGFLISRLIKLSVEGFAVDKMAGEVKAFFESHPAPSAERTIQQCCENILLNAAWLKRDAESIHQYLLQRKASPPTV

[2] = biological target: T2, purified, recombinant human DPIV (Homo sapiens, UniProt P27487); assay: Inhibition of enzymatic activity of DPIV (fluorogenic substrate hydrolysis); format: biochemical; details: highest test item concentration 25 μM; for IC50: read-out: meas. IC50 (DPIV)
T2 construct: made in house; host or cells: Sf9 insect cells
T2 sequence (P27487 whole entry): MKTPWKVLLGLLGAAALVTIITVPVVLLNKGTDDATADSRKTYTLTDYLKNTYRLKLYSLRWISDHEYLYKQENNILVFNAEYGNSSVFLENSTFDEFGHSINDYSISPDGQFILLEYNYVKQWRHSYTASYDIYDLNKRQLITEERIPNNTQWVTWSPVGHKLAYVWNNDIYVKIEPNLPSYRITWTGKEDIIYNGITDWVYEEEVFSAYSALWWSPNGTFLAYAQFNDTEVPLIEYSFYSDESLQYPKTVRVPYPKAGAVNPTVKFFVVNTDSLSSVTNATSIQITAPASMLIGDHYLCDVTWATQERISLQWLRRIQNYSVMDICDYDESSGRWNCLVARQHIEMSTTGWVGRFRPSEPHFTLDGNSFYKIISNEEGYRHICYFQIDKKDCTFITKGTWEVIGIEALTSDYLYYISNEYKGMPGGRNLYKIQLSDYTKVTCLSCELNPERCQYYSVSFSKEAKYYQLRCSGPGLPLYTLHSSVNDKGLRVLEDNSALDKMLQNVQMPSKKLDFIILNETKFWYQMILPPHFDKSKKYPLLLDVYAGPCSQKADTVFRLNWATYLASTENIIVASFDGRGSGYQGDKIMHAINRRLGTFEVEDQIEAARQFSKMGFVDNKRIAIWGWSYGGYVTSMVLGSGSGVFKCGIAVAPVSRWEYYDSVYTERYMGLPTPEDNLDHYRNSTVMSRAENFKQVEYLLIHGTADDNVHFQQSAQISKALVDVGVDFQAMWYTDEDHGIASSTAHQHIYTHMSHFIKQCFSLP
Description: (§1) The inhibition of the enzymatic activity of DPIV and related enzymes was measured by using purified, recombinant human DPIV (purified from transfected Sf9 cells, final enzyme concentration approx. 1 nM) as well as purified, recombinant DP8 and DP9 (purchased from Biomol). The assay was performed in 0.05M TRIS/HCl puffer pH 7.5, supplemented with 0.05% Triton (v/v), 0.05% BSA (w/v), 2 mM MgCl2.
(§2) The enzymatic activity of DPIV was assessed by the hydrolysis of the fluorogenic substrates H-Gly-Pro-4-amino-7-methyl coumarine (abbreviation of fluorogenic group AMC; purchased from Bachem) or (Ala-Pro)2-Rhodamine 110 (abbreviation R110). The final substrate concentrations were 50 μM or 1 μM, respectively.
(§3) The assay was performed in white microtitre plates for fluorescence measurements. The test items, substrate and enzyme were diluted in assay buffer. The highest test item concentration used was 25 μM. For the calculation of IC50 values, at least 16 log 2-dilutions of each test item were analyzed. As controls, the DPIV activity in the absence of test items as well as the spontaneous hydrolysis of the substrate was determined.
(§4) The release of the fluorescent hydrolysis product AMC was measured at an excitation wavelength of 380 nm and an emission wavelength of 460 nm by using a microtitre fluorescence reader immediately after substrate addition as well as after 30, 60 and 120 min. The hydrolysis of the substrate (Ala-Pro)2-Rhodamine 110 was determined at an exitation wavelength of 488 nm and emission wavelength of 530 nm.

T lymphocytes (T cells) = assay: Suppression of DNA synthesis of PHA-stimulated T lymphocytes; format: cell-based; details: Homo sapiens, T-cell, 48 h, tritium thymidine incorporation, read-out: Supp. DNA Synt. T-cell IC50
Description: Peripheral blood mononuclear cells (PBMC) from healthy human volunteers were freshly isolated by density gradient centrifugation. T lymphocytes (T cells) were isolated from PBMC fractions via nylon wool adherence. Both cell populations were cultured in serum free lymphocyte medium (AIMV medium, Invitrogen) and stimulated by addition of 1 μg/ml Phytohemagglutinine for 48 hours in 96 well flat-bottom microtiter plates. Test compounds were added at concentration ranges from 0.1 up to 250 μM over the total assay period.
DNA synthesis of proliferating PBMC was assessed by incorporation of nucleotide analogue bromdesoxyuridine (BrdU) and subsequent detection of BrdU by ELISA technique (Cell Proliferation Biotrak™ ELISA system, GE Health Care) according to the protocol of the manufacturer. DNA synthesis of proliferating T cells was determined by incorporation of radio labelled tritium thymidine and subsequent radio detection.
Data output was based on raw data and calculation of relative proliferation response in relation to PHA-activated T cells in the absence of test compound (100% control). The IC50 value of proliferation suppression was assessed by graphical evaluation.

[3] = test system: purified, recombinant DP8 and DP9; assay: Inhibition of enzymatic activity of DP8/9; format: biochemical; details: highest test item concentration 25 μM; for IC50: read-out: meas. IC50 (DP8/9)
Description: as §1, §2, §3, §4

SZ95 cells = assay: Inhibition of DNA synthesis and proliferation of immortalized human sebocytes SZ95; format: cell-based; details: Homo sapiens, EGF-stimulated SZ95 sebocytes, tritium thymidine incorporation; read-out: Supp. DNA Synt. SZ95 IC50
Description: The immortalized human sebocyte line SZ95 was provided by Prof. C Zouboulis [C C Zouboulis, H Seltmann, H Neitzel, C E Orfanos, Establishment and characterization of an immortalized human sebaceous gland cell line (SZ95). J. Invest. Dermatol. 113(6):1011-1020 (1999), the entire disclosure of which is incorporated by reference herein]. These adherent growing cells were cultured in serum-free Sebomed Complete (Biochrom). Recombinant EGF was added in order to stimulate DNA synthesis and proliferation of the SZ95 cells. Test items were added in concentrations from 0.1 up to 100 μM.
The DNA synthesis of proliferating cells was detected by incorporation of radiolabelled tritium thymidine (3HT) and counting at a beta counter. Based on these raw data the relative proliferation response in relation to cells cultured in the absence of test compound (100% control) was calculated. IC50 values of proliferation suppression were assessed by computer-assisted graphical evaluation.

NHEK cells = assay: Inhibition of DNA synthesis and proliferation of normal human epidermal keratinocytes (NHEK); format: cell-based; details: Homo sapiens, NHEK, 48 h, EGF-stimulated NHEK, BrdU incorporation, read-out: Supp. DNA Synt. NHEK IC50
Description: NHEK cells (primary cells from person) were purchased from PromoCell. For these assay the adherent cells were cultured in serum-free Keratinocyte Growth medium 2 supplemented with epidermal growth factor (EGF) and bovine pituitary extract for 48 hours in flat-bottom microtiter plates. EGF stimulates the DNA synthesis and proliferation of these cells. Test items were added in concentrations from 0.1 up to 100 μM.
The DNA synthesis was assessed by incorporation of bromdesoxyuridine (BrdU) and subsequent detection of BrdU by ELISA technique. Based on these raw data the relative proliferation response in relation to cells cultured in the absence of test compound (100% control) was calculated. IC50 values of proliferation suppression were assessed by computer-assisted graphical evaluation.

[4] = biological target: T3, aminopeptidase N (APN), purified recombinant human enzyme (Homo sapiens, UniProt P15144); assay: Inhibition of enzymatic activity of aminopeptidase N (fluorogenic substrate hydrolysis); format: biochemical; details: highest test item concentration 25 μM; for IC50: read-out: meas. IC50 (APN)
T3 construct: made in house; host or cells: ECV cells (transfected)
T3 sequence (P15144 whole entry): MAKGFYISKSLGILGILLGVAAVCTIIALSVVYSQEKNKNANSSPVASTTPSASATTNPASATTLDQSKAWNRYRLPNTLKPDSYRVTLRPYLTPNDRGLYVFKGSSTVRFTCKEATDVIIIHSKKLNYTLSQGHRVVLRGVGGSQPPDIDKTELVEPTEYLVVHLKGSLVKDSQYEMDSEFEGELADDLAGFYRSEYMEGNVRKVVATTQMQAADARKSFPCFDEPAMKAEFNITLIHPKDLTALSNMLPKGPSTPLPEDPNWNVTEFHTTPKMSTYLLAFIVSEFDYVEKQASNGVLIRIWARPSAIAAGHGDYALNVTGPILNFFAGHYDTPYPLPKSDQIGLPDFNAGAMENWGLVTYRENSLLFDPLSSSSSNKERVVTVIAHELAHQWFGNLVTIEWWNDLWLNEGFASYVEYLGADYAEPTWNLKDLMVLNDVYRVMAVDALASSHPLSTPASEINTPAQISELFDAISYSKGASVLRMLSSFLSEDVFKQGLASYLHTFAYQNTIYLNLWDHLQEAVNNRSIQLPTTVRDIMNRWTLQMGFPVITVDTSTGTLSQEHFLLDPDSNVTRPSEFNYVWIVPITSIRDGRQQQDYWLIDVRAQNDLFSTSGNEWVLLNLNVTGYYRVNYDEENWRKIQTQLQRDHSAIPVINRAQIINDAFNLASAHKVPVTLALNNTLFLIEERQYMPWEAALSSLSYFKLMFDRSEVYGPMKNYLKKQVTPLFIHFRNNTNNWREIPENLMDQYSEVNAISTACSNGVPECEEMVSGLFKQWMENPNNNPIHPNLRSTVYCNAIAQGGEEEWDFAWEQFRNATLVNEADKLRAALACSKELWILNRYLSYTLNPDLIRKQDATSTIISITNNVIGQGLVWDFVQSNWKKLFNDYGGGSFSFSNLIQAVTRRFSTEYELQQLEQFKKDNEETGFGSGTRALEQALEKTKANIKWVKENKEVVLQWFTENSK
Description: The inhibition of the enzymatic activity of aminopeptidase N (APN) was measured by using purified, recombinant human enzyme (purified from transfected ECV cells, final enzyme concentration approx. 1 nM). […] The assay was performed in 0.05M TRIS/HCl puffer pH 7.5, supplemented with 0.05% Triton (v/v), 0.05% BSA (w/v), 2 mM MgCl2.
The aminopeptidase acitivities wer assessed by the hydrolysis of the fluorogenic substrates H-Ala-4-amino-7-methyl coumarine (abbreviation of fluorogenic group AMC; purchased from Bachem) or (Ala-)2-Rhodamine 110 (abbreviation R110). The final substrate concentrations were again 50 and 1 μM, respectively.
as §3
The release of the fluorescent hydrolysis products AMC and R110 was measured as described above for DPIV substrates.

SMILES | meas. IC50 (cAAP) [1] | meas. IC50 (DPIV) [2] | IC50 (T lymphocytes (T cells)) [µM] | meas. IC50 (DP8/9) [3] | IC50 (SZ95 cells) [µM] | IC50 (NHEK cells) [µM] | meas. IC50 (APN) [4] | IC50 [2] [µM] | IC50 [3] [µM] | IC50 [1] [µM] | IC50 [4] [µM]
CC(C)[C@@H]1CC[C@@H](C)CC1OC(=O)CC(Cc1cc(F)ccc1F)NC(=O)OC(C)(C)C (stereo partly shown) [Compound C-122] | no in- hibition | no in- hibition | 5.83 | no in- hibition | 65.2 | 69.4 | no in- hibition | – | – | – | –
CC(C)(C)OC(=O)NC(CNS(=O)(=O)CCCNC(=O)C(O)C(Cc1ccccc1)NC(=O)OC(C)(C)C)Cc1cc(F)ccc1F (stereo not shown) [Compound C26.002] | no in- hibition | – | 200 | no in- hibition | – | 18.1 | no in- hibition | 6.52 | – | – | –
CC(C)(CNC(=O)CC(N)Cc1cc(F)ccc1F)CNC(=O)C(O)C(N)COCc1ccccc1 (stereo not shown) [Compound C19.020] | – | – | – | – | – | – | – | – | 1.2 | – | –
CCCCCCCC(=O)OC(C(=O)NCC(C)(C)CNC(=O)CC(Cc1cc(F)ccc1F)NC(=O)OC(C)(C)C)C(COCc1ccc(OC)cc1)NC(=O)OC(C)(C)C (stereo not shown) [Compound C19.007] | no in- hibition | no in- hibition | 78.6 | no in- hibition | 56.8 | ≥ 120 | no in- hibition | – | – | – | –
COc1ccc(COCC(NC(=O)C(C)(C)C)C(OCc2ccc(OC)cc2)C(=O)NCC(C)(C)CNC(=O)CC(Cc2cc(F)ccc2F)NC(=O)C(C)(C)C)cc1 (stereo not shown) [Compound C19.018] | no in- hibition | no in- hibition | 3.3 | no in- hibition | 9.1 | 9.9 | no in- hibition | – | – | – | –
CCOC(=O)C(O[Si](C)(C)C(C)(C)C)C(Cc1ccc(-c2cccnc2)cc1)NC(=O)OCc1ccccc1 (stereo not shown) [Compound C26.006] | no in- hibition | no in- hibition | 3.8 | – | 7.9 | 1.9 | no in- hibition | – | – | – | –
NC(CNS(=O)(=O)CCCNC(=O)C(O)C(N)Cc1ccccc1)Cc1cc(F)ccc1F (stereo not shown) [Compound C26.001] | – | – | 200 | – | – | ≥ 135 | – | 0.58 | 7.37 | 0.09 | 0.07
CC(C)(CNC(=O)CC(N)Cc1cc(F)ccc1F)CNC(=O)C(O)C(N)Cn1cnc2cncnc21 (stereo not shown) [Compound C18.001] | – | – | 29.8 | – | ≥ 156 | – | – | 0.247 | 16 | 1 | 0.91
CC(=O)NC(Cc1ccccc1)C(O)C(=O)NCCCS(=O)(=O)NCC(N)Cc1cc(F)ccc1F (stereo not shown) [Compound C26.003] | – | – | 70 | no in- hibition | – | ≥ 167 | – | 0.36 | – | 0.25 | 0.19
CC(C)(C)OC(=O)NC(CCCCNS(=O)(=O)c1cccc(NC(=O)C(O)C(Cc2ccccc2)NC(=O)OC(C)(C)C)c1)C(=O)N1CCSC1 (stereo not shown) [Compound C21.005] | no in- hibition | no in- hibition | 11.4 | no in- hibition | – | 15.3 | no in- hibition | – | – | – | –
NC(CNC(=O)CCCNC(=O)C(O)C(N)Cc1ccccc1)Cc1cc(F)ccc1F (stereo not shown) [Compound C26.005] | – | no in- hibition | 27.3 | – | – | 28.9 | – | – | – | 0.13 | 0.09
CC(C)(CNC(=O)CC(N)Cc1cc(F)ccc1F)CNC(=O)C(O)C(N)COCc1ccccc1 (stereo not shown) [Compound C19.001] | – | – | – | – | – | – | – | – | 1.25 | – | –
CC(C)(C)OC(=O)NC(CNC(=O)c1cccc(NC(=O)C(O)C(N)Cc2ccc(-c3cccnc3)cc2)c1)Cc1cc(F)ccc1F (stereo not shown) [Compound C-125] | – | no in- hibition | 12.9 | – | 13.7 | 4.4 | – | – | – | 0.005 | 0.094
CC(=O)NC(Cc1ccccc1)C(O)C(=O)NCCCS(=O)(=O)NCC(Cc1cc(F)ccc1F)NC(=O)OC(C)(C)C (stereo not shown) [Compound C26.004] | no in- hibition | no in- hibition | 70 | no in- hibition | – | ≥ 106 | no in- hibition | – | – | – | –
NC(CCCCNS(=O)(=O)c1cccc(NC(=O)C(O)C(N)Cc2ccccc2)c1)C(=O)N1CCSC1 (stereo not shown) [Compound C21.006] | – | – | 157 | – | – | 66.2 | – | 0.05 | 0.11 | 0.12 | 0.89
CC(C)(C)OC(=O)NC(CNC(=O)CCCNC(=O)C(O)C(Cc1ccccc1)NC(=O)OC(C)(C)C)Cc1cc(F)ccc1F (stereo not shown) [Compound C26.009] | – | no in- hibition | – | – | – | – | no in- hibition | – | – | – | –
NC(CNC(=O)CCCNC(=O)C(O)C(N)Cc1ccccc1)Cc1cc(F)ccc1F (stereo not shown) [Compound C26.008] | – | – | – | – | – | – | – | 0.9 | – | – | 0.01
CC(C)(CNC(=O)CC(N)Cc1cc(F)ccc1F)CNC(=O)C(O)C(N)CO (stereo not shown) [Compound C19.003] | – | – | 81.2 | – | 81.4 | – | – | 0.33 | 3.8 | 0.37 | 0.92
CC(C)(CNC(=O)CC(N)Cc1cc(F)ccc1F)CNC(=O)C(O)C(N)COCc1ccccc1 (stereo not shown) [Compound C19.022] | – | – | – | – | – | – | – | – | 1.2 | – | –
NC(Cc1cc(F)ccc1F)CS(=O)(=O)NCCCCNC(=O)C(O)C(N)Cc1ccccc1 (stereo not shown) [Compound C26.007] | – | no in- hibition | 3.5 | – | 7.3 | – | no in- hibition | – | – | – | –
